In patent US11976083B2, “Inhibitors of peptidylarginine deiminases” (Gilead Sciences, Inc., priority 2020, dated 2024):

Molecular target: T1, human PAD4 (Homo sapiens, UniProt Q9UM07)
T1 construct: human PAD4 (NM_012387), A2-P663, was PCR amplified; His-SUMO (N, cleaved yes); made in house; host or cells: E. coli BL21(DE3)
Experiment: In vitro PAD4 BAEE biochemical assay
Conditions: BAEE substrate 3 mM, 5 nM PAD4, 2 mM calcium chloride; geometric mean of multiple experiments
Outline: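 Recombinant PAD4 (5 nM final) with 2 mM CaCl2 was preincubated with compound for 30 min at 25 °C in MOPS pH 7.6 buffer with DTT, then reacted with 3 mM BAEE for 2 h at 25 °C. Released ammonia was detected fluorimetrically with o-phthalaldehyde/DTT; IC50 from four-parameter fit, geometric mean of experiments.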

T1 sequence (Q9UM07 2-663): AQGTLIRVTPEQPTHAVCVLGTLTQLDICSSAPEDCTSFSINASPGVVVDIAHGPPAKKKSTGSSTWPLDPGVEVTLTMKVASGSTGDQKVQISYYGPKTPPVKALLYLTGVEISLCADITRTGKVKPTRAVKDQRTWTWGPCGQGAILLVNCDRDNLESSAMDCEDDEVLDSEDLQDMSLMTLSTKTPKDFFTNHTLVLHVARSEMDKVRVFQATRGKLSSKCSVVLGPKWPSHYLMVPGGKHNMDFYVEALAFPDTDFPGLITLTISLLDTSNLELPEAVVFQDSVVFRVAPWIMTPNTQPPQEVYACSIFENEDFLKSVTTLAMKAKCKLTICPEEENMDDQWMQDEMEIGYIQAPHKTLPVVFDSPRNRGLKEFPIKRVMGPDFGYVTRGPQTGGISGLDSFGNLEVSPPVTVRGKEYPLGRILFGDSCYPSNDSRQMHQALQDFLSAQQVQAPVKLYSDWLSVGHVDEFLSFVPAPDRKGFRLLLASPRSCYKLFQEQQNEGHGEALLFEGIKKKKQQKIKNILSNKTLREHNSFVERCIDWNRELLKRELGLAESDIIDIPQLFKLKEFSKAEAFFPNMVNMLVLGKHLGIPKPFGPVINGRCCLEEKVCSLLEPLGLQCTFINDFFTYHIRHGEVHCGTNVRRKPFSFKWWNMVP

| Structure (SMILES) | IC50 [nM] |
| --- | --- |
| C[C@H]1NC(=O)c2c(F)cncc2CCCCCn2c(-c3nc4cc(C(=O)N5C[C@H](N)[C@@H]6CC[C@H]5C6)cc(F)c4n3C3CC3)cc3ccc1nc32 [Example 440, (2~{R})-17-[5-[(1~{S},4~{R},5~{R})-4-amino-2-azabicyclo[3.2.1]octane-2-carbonyl]-1-cyclopropyl-7-fluoro-benzimidazol-2-yl]-6-fluoro-2-methyl-3,8,16,22-tetrazatetracyclo[14.5.2.0^{5,10}.0^{19,23}] tricosa-1(22),5(10),6,8,17,19(23),20-heptaen-4-one] | 27 |
| C[C@H]1NS(=O)(=O)CCCC/C=C/Cn2c(-c3nc4cc(C(=O)N[C@H]5CNCC[C@@H]5F)c(F)cc4n3C)cc3ccc1nc32 [Example 497, 6-fluoro-~{N}-[(3~ {S},4~{S})-4-fluoro-3-piperidyl]-1-methyl-2-[(3~{E},11~{R})-11-methyl-9,9-dioxo-9$1^6-thia-1,10,19-triazatricyclo[10.5.2.0^{15,18}]nonadeca-3,12(19),13,15 (18),16-pentaen-17-yl]benzimidazole-5-carboxamide] | 54 |
| COc1cc(C(=O)N2C[C@H](N)C[C@@H](F)C2)cc2nc(-c3cc4ccc5nc4n3CCCCCc3nc4ccsc4cc3C(=O)N[C@@H]5C)n(C)c12 [Example 794, (2~{R})-20-[5-[(3~{R},5~{R})-3-amino-5-fluoro-piperidine-1-carbonyl]-7-methoxy-1-methyl-benzimidazol-2-yl]-2-methyl-8-thia-3,12,19,25-tetrazapentacyclo[17.5.2.0^ {5,13}.0^{7,11).0^{22,26}] hexacosa-1(24),5(13), 6,9,11,20,22,25-octaen-4-one] | 18 |
| COc1cc(C(=O)N2CC[C@@H](OC)[C@@H](N)C2)cc2nc(-c3cc4ccc5nc4n3CCCCCc3cccc(F)c3C(=O)N[C@@H]5C)n(C)c12 [Example 360, (2~{R})-17-[5-[(3~{S},4~{R})-3-amino-4-methoxy-piperidine-1-carbonyl]-7-methoxy-1-methyl-benzimidazol-2-yl]-6-fluoro-2-methyl-3,16,22-triazatetracyclo[14.5.2.0^{5,10}.0^{19,23}] tricosa-1(22),5,7,9,17,19(23),20-heptaen-4-one] | 58 |
| CO[C@@H]1CCN(C(=O)c2cc(F)c3c(c2)nc(-c2cc4ccc5nc4n2CCCCCc2nc4ccsc4cc2C(=O)N[C@@H]5C)n3C2CC2)C[C@@H]1N [Example 797, (2~{R})-20-[5-[(3~{S},4~{R})-3-amino-4-methoxy-piperidine-1-carbonyl]-1-cyclopropyl-7-fluoro-benzimidazol-2-yl]-2-methyl-8-thia-3,12,19,25-tetrazapentacyclo[17.5.2.0^ {5,13}.0^{7,11}.0^{22,26}] hexacosa-1(24),5(13), 6,9,11,20,22,25-octaen-4-one] | 16 |
| C[C@H]1NC(=O)[C@@H]2C[C@@]2(F)CCCC(F)(F)Cn2c(-c3nc4cc(C(=O)N5C[C@H](N)[C@@H]6CC[C@H]5C6)cc(F)c4n3C3CC3)cc3ccc1nc32 [Example 449, (2~{R},5~{S},7~{S})-14-[5-[(1~{S},4~{R},5~{R})-4-amino-2-azabicyclo[3.2.1]octane-2-carbonyl]-1-cyclopropyl-7-fluoro-benzimidazol-2-yl]-7,11,11-trifluoro-2-methyl-3,13,19-triazatetracyclo[11.5.2.0^{5,7}.0^{16,20}] icosa-1(19),14,16(20),17-tetraen-4-one] | 22 |
| C[C@H]1NC(=O)[C@@H]2C[C@H]2CCCC(F)(F)Cn2c(-c3nc4cc(C(=O)N5C[C@H](N)[C@@H]6CC[C@H]5C6)cc(F)c4n3[C@@H]3C[C@@H]3C(F)F)cc3ccc1nc32 [Example 756, (2~{R},5~{R},7~{R})-14-[5-[(1~{S},4~{R},5~{R})-4-amino-2-azabicyclo[3.2.1]octane-2-carbonyl]-1-[(1~{R},2~{S})-2-(difluoromethyl)cyclopropyl]-7-fluoro-benzimidazol-2-yl]-11,11-difluoro-2-methyl-3,13,19-triazatetracyclo [11.5.2.0^{5,7}.0^{16,20}] icosa-1(19),14,16(20),17-tetraen-4-one] | 31 |
| COc1cc(C(=O)N2C[C@H](N)[C@@H]3CC[C@H]2C3)cc2nc(-c3cc4ccc5nc4n3CCCCCc3nc(C(F)(F)F)ncc3C(=O)N[C@@H]5C)n(C3CC3)c12 [Example 934, (2~{R})-17-[5-[(1~{S),4~{R},5~ {R})-4-amino-2-azabicyclo [3.2.1]octane-2-carbonyl]-1-cyclopropyl-7-methoxy-benzimidazol-2-yl]-2-methyl-8-(trifluoromethyl)-3,7,9,16,22-pentazatetracyclo[14.5.2.0^ {5,10}.0^{19,23}]tricosa-1(21),5(10),6,8,17,19,22-heptaen-4-one] | 103 |
| COC1CC1n1c(-c2cc3ccc4nc3n2CCCCC[C@@H]2C[C@H]2C(=O)N[C@@H]4C)nc2cc(C(=O)N[C@H]3CNCC[C@@H]3F)c(F)cc21 (some centres unmarked) [Example 607, 6-fluoro-~{N}-[(3~{S),4~ {S})-4-fluoro-3-piperidyl]-1-(2-methoxycyclopropyl)-2-[(2~{R},5~{R},7~{R})-2-methyl-4-oxo-3,13,19-triazatetracyclo[11.5.2.0^ {5,7}.0^{16,20}]icosa-1(18),14,16,19-tetraen-14-yl]benzimidazole-5-carboxamide] | 51 |

Other lines, results leading:

| IC50 [nM] | Structure (SMILES) |
| --- | --- |
| 91 | COc1cc(C(=O)N2CC[C@@H](OC)[C@@H](N)C2)cc2nc(-c3cc4ccc5nc4n3CCCCCC[C@@](C)(C(F)(F)F)C(=O)N[C@@H]5C)n(C)c12 [Example 719, (8~{R},11~{R})-17-[5-[(3~{S},4~{R})-3-amino-4-methoxy-piperidine-1-carbonyl]-7-methoxy-1-methyl-benzimidazol-2-yl]-8,11-dimethyl-8-(trifluoromethyl)-1,10,19-triazatricyclo[10.5.2.0^ {15,18}]nonadeca-12(19),13,15(18),16-tetraen-9-one] |
| 58 | COc1cc(C(=O)N2C[C@H](N)CCN2C)cc2nc(-c3cc4ccc5nc4n3CCCCCCC(C)(C)C(=O)N[C@@H]5C)n(C)c12 [Example 299, (11~{R})-17-[5-[(5~{R})-5-amino-2-methyl-hexahydropyridazine-1-carbonyl]-7-methoxy-1-methyl-benzimidazol-2-yl]-8,8,11-trimethyl-1,10,19-triazatricyclo[10.5.2.0^{15,18}]nonadeca-12(19),13,15(18),16-tetraen-9-one] |
| 48 | COc1cc(C(=O)N2C[C@H](N)[C@@H]3CC[C@H]2C3)cc2nc(-c3cc4ccc5nc4n3CCCCCc3cccc(F)c3C(=O)N[C@@H]5C)n(C)c12 [Example 902, (2~{R})-17-[5-[(1~{S),4~{R}, 5~{R})-4-amino-2-azabicyclo [3.2.1]octane-2-carbonyl]-7-methoxy-1-methyl-benzimidazol-2-yl]-6-fluoro-2-methyl-3,16,22-triazatetracyclo [14.5.2.0^{5,10}.0^{19,23}] tricosa-1(22),5(10),6,8,17, 19(23),20-heptaen-4-one] |
| 71 | COc1cc(C(=O)N2C[C@H](N)[C@@H]3CC[C@H]2C3)cc2nc(-c3cc4ccc5nc4n3CC(F)(F)CCCOC(C)(C)C(=O)N[C@@H]5C)n(C)c12 [Example 460, (11~{R})-17-[5-[(1~{S},4~{R},5~{R})-4-amino-2-azabicyclo[3.2.1]octane-2-carbonyl]-7-methoxy-1-methyl-benzimidazol-2-yl]-3,3-difluoro-8,8,11-trimethyl-7-oxa-1,10,19-triazatricyclo[10.5.2.0^{15,18}]nonadeca-12(19),13,15(18),16-tetraen-9-one] |
| 187 | COc1cc(C(=O)N2[C@H]3CC[C@@H]2[C@H](N)[C@H](O)C3)cc2nc(-c3cc4ccc5nc4n3CCCCCCC3(CC3)C(=O)N[C@@H]5C)n(C)c12 [Example 207, (11~{R})-17-[5-[(1~{R},2~{S},3~{R},5~{S})-2-amino-3-hydroxy-8-azabicyclo[3.2.1]octane-8-carbonyl]-7-methoxy-1-methyl-benzimidazol-2-yl]-11-methyl-spiro[1,10,19-triazatricyclo[10.5.2.0^{15,18}]nonadeca-12(19),13,15(18),16-tetraene-8,1′-cyclopropane]-9-one] |
| 39 | C[C@H]1NC(=O)C2C[C@H]2CCCCCn2c(-c3nc4cc(C(=O)N5CCC[C@@H](N)C5)cc(Cl)c4n3C)cc3ccc1nc32 (some centres unmarked) [Example 506, (2~{R},7~{R})-14-[5-[(3~ {R})-3-aminopiperidine-1-carbonyl]-7-chloro-1-methyl-benzimidazol-2-yl]-2-methyl-3,13,19-triazatetracyclo[11.5.2.0^ {5,7}.0^{16,20}]icosa-1(19), 14,16(20),17-tetraen-4-one] |
| 21 | COc1cc(C(=O)N2[C@H]3CC[C@@H]2[C@H](N)C3)cc2nc(-c3cc4ccc5nc4n3CCCCCCCCC(=O)N3CCC[C@H]53)n(C)c12 [Example 130, (2~{R})-17-[5-[(1~{R},2~{R},4~{S})-2-amino-7-azabicyclo[2.2.1]heptane-7-carbonyl]-7-methoxy-1-methyl-benzimidazol-2-yl]-6,16,22-triazatetracyclo[14.5.2.0^{2,6}.0^{19,23}] tricosa-1(22),17,19(23),20-tetraen-7-one] |
| 45 | COc1cc(C(=O)N2CCC[C@@H](N)C2)cc2nc(-c3cc4ccc5cc4n3CCCCCCC(C)(C)C(=O)N[C@@H]5C)n(C)c12 [Example 148, (11~{R})-17-[5-[(3~{R})-3-aminopiperidine-1-carbonyl]-7-methoxy-1-methyl-benzimidazol-2-yl]-8,8,11-trimethyl-1,10-diazatricyclo [10.5.2.0^{15,18}]nonadeca-12(19),13,15(18),16-tetraen-9-one] |
